In the supplement of paper PMC11061612:

Columns and labels:
Assay in all cases: Bliss excess, mean over the matrix (fraction); higher = more synergy
[1] = system: BFTC-905 (Bladder Carcinoma)
Procedure, shortened: (§1)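 Cell lines grown in DMEM/F12 or RPMI with 10% FBS were plated in 1536-well plates and held 24 hours at 37°C, 5% CO2 before 72 hours of exposure to two-drug dose matrices, with DMSO typically at 0.2%. CellTiter-Glo 2.0 luminescence gave viability, which was converted to inhibition. Vehicle wells were set to 0 and blank wells to 1. Combination Emax is the second-highest inhibition in the matrix, and Bliss excess is the observed combination effect minus the expected EA + EB − EA·EB, where EA and EB are the single-agent effects.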

[2] = system: BL-41 (Burkitt's Lymphoma)
Procedure, shortened: as §1

[3] = system: CAMA-1 (Breast Carcinoma)
Procedure, shortened: as §1

CHP-212 (Neuroblastoma) = system: CHP-212 (Neuroblastoma)
Procedure, shortened: as §1

ES1 (Ewing's Sarcoma) = system: ES1 (Ewing's Sarcoma)
Procedure, shortened: as §1

ES8 (Ewing's Sarcoma) = system: ES8 (Ewing's Sarcoma)
Procedure, shortened: as §1

[4] = system: GR-ST (B-Lymphoblastic Leukemia)
Procedure, shortened: as §1

[5] = system: HL-60 (Acute Myeloid Leukemia)
Procedure, shortened: as §1

[6] = system: KARPAS-45 (T-Lymphoblastic Leukemia)
Procedure, shortened: as §1

[7] = system: KM12 (Colorectal Carcinoma)
Procedure, shortened: as §1

MEL-JUSO (Melanoma) = system: MEL-JUSO (Melanoma)
Procedure, shortened: as §1

[8] = system: MKN28 (Gastric Carcinoma)
Procedure, shortened: as §1

[9] = system: MOLT-16 (T-Lymphoblastic Leukemia)
Procedure, shortened: as §1

[10] = system: MS751 (Cervical Carcinoma)
Procedure, shortened: as §1

NCI-H2818 (Mesothelioma) = system: NCI-H2818 (Mesothelioma)
Procedure, shortened: as §1

[11] = system: NCI-H847 (Small Cell Lung Carcinoma)
Procedure, shortened: as §1

[12] = system: SU-DHL-8 (B-Cell Non-Hodgkin's Lymphoma)
Procedure, shortened: as §1

[13] = system: SW1417 (Colorectal Carcinoma)
Procedure, shortened: as §1

WIL2-NS (Non-Cancerous) = system: WIL2-NS (Non-Cancerous)
Procedure, shortened: as §1

WM-115 (Melanoma) = system: WM-115 (Melanoma)
Procedure, shortened: as §1

SMILES	Bliss excess [1]	Bliss excess [2]	Bliss excess [3]	Bliss excess (CHP-212 (Neuroblastoma))	Bliss excess (ES1 (Ewing's Sarcoma))	Bliss excess (ES8 (Ewing's Sarcoma))	Bliss excess [4]	Bliss excess [5]	Bliss excess [6]	Bliss excess [7]	Bliss excess (MEL-JUSO (Melanoma))	Bliss excess [8]	Bliss excess [9]	Bliss excess [10]	Bliss excess (NCI-H2818 (Mesothelioma))	Bliss excess [11]	Bliss excess [12]	Bliss excess [13]	Bliss excess (WIL2-NS (Non-Cancerous))	Bliss excess (WM-115 (Melanoma))
COc1cccc(OCCCN)c1-c1cc(Nc2cnc(C#N)cn2)n[nH]1 [Prexasertib] + CCc1c2c(nc3ccc(O)cc13)-c1cc3c(c(=O)n1C2)COC(=O)[C@]3(O)CC [SN-38] (first compound max 1 µM, 7x7, partner max 0.3 µM)	-0.0004	-0.0231	0.0573	-0.094	0.0085	-0.0301	-0.106	-0.0203	0.0731	0.0186	-0.0378	-0.0082	0.0103	0.0628	-0.0745	0.055	-0.0171	0.0029	-0.0234	-0.0492
Cc1c2c(nn1C)CSCc1cc(n(C)n1)CSc1cc(c3ccccc3c1)OCCCc1c(C(=O)O)n(C)c3c-2c(Cl)ccc13 [AZD5991] + C[C@@H]1COCCN1C2=NC(=NC(=C2)C3(CC3)[S@](=N)(=O)C)C4=C5C=CNC5=NC=C4 [AZD6738] (first compound max 1 µM, 7x7, partner max 10 µM)	0.0113	-0.0045	0.0332	0.0122	0.0292	0.0029	-0.129	-0.0069	0.0077	0.0321	0.0406	0.0118	0.0043	0.0565	0.0148	0.0145	0.0814	-0.0352	-0.0025	0.0041
CC1(C)CCC(CN2CCN(c3ccc(C(=O)NS(=O)(=O)c4ccc(NCC5CCOCC5)c([N+](=O)[O-])c4)c(Oc4cnc5[nH]ccc5c4)c3)CC2)=C(c2ccc(Cl)cc2)C1 [Venetoclax] + Cc1cc2ncnn2cc1Nc1ncc2c(n1)n(C1CCOCC1)c(=O)n2C [AZD7648] (first compound max 1 µM, 7x7, partner max 10 µM)	-0.0081	-0.0007	-0.0266	-0.0624	0.0149	-0.0817	-0.0513	0.0582	0.0482	-0.0129	-0.0235	-0.011	0.0704	0.003	-0.0529	0.0002	-0.0318	-0.0705	-0.0684	-0.038
Cc1c2c(nn1C)CSCc1cc(n(C)n1)CSc1cc(c3ccccc3c1)OCCCc1c(C(=O)O)n(C)c3c-2c(Cl)ccc13 [AZD5991] + CN(C)CCCOc1ccc(-c2ccc3ncc4c(c3c2)n(C2CCOCC2)c(=O)n4C)cn1 [AZD0156] (first compound max 1 µM, 7x7, partner max 1 µM)	0.0304	0.0168	0.002	-0.0538	0.0092	0.0224	-0.112	0.006	-0.0403	-0.0453	0.0023	0.0021	-0.0302	0.0099	-0.0052	-0.0131	-0.0377	0.0308	-0.0099	-0.0136
COc1cccc2c1C(=O)c1c(O)c3c(c(O)c1C2=O)C[C@@](O)(C(=O)CO)C[C@@H]3O[C@H]1C[C@H](N)[C@H](O)[C@H](C)O1 [Doxorubicin] + Cc1cc2ncnn2cc1Nc1ncc2c(n1)n(C1CCOCC1)c(=O)n2C [AZD7648] (first compound max 1 µM, 7x7, partner max 10 µM)	0.131	0.0714	0.0266	0.0611	0.119	0.125	0.0279	0.108	-0.0006	0.0554	0.0309	-0.0179	0.143	0.135	-0.0019	0.124	0.0145	0.0216	0.0885	-0.0234
CC1(C)CCC(CN2CCN(c3ccc(C(=O)NS(=O)(=O)c4ccc(NCC5CCOCC5)c([N+](=O)[O-])c4)c(Oc4cnc5[nH]ccc5c4)c3)CC2)=C(c2ccc(Cl)cc2)C1 [Venetoclax] + C1CN(CCC1(C(=O)N[C@@H](CCO)C2=CC=C(C=C2)Cl)N)C3=NC=NC4=C3C=CN4 [Capivasertib] (first compound max 1 µM, 7x7, partner max 3 µM)	-0.0288	-0.0058	-0.056	-0.0467	0.0278	-0.0933	-0.0382	0.0198	0.0512	-0.041	-0.0436	-0.0455	0.0937	-0.0161	-0.0628	0.0062	-0.0918	-0.0744	-0.0145	-0.0785
CCc1c2c(nc3ccc(O)cc13)-c1cc3c(c(=O)n1C2)COC(=O)[C@]3(O)CC [SN-38] + CN(C)CCCOc1ccc(-c2ccc3ncc4c(c3c2)n(C2CCOCC2)c(=O)n4C)cn1 [AZD0156] (first compound max 0.3 µM, 7x7, partner max 1 µM)	0.0608	0.0556	-0.0477	0.0143	0.0784	0.0458	-0.0319	0.115	-0.0082	0.0711	0.0265	0.0117	0.0538	0.0355	0.015	-0.023	-0.059	-0.033	0.08	-0.0408
Cc1c2c(nn1C)CSCc1cc(n(C)n1)CSc1cc(c3ccccc3c1)OCCCc1c(C(=O)O)n(C)c3c-2c(Cl)ccc13 [AZD5991] + CCN(CCO)CCCOc1ccc2c(Nc3cc(CC(=O)Nc4cccc(F)c4)[nH]n3)ncnc2c1 [AZD2811] (first compound max 1 µM, 7x7, partner max 1 µM)	0.11	-0.0295	0.0743	-0.0496	0.0915	0.012	-0.0742	-0.0001	-0.0409	0.058	0.0389	0.0839	-0.0114	0.0367	-0.0116	0.0011	0.0416	-0.0139	0.0821	-0.0726
